According to US10377741B2, “Substituted heteroaryl aldehyde compounds and methods for their use in increasing tissue oxygenation” (Global Blood Therapeutics, Inc., priority 2011, dated 2019):

Target: T1, purified Hemoglobin S (HbS) (Homo sapiens, UniProt P68871+P69905, E7V)
T1 construct: HbS was purified by a modified procedure; from tissue; host or cells: blood of homozygous sickle cell patients (CHORI); for the polymerization assay purified by the CRO VIRUSYS
Assay: Modulation of hemoglobin oxygen affinity: oxygen equilibrium curves (HEMOX) in purified HbS
Assay type: biochemical, human (homozygous sickle cell patients)
Details: compound at 30 μM; 25 μM purified HbS, 45 min at 37° C.
Procedure: Oxygen equilibrium curves (OEC) in purified Hemoglobin S (HbS) were measured by the change in p50, the partial pressure of oxygen at which the heme binding sites in the HbS sample are 50% saturated with oxygen. HbS was purified by a modified procedure (Antonini and Brunori, 1971; Heomoglobin and Myoglobin in their Reactions with Ligands; North Holland Publishing Company; Amsterdam, London) from blood obtained from homozygous sickle cell patients though the Hemoglobinopathy Center at Children's Hospital Oakland Research Institute (CHORI) with Institutional Review Board approval. Oxygen equilibrium curves were carried out with a HEMOX analyzer, (TCS Scientific, New Hope, Pa.). Five hundred μL of 250 μM purified HbS were diluted into 4.5 mL of HEMOX buffer (30 mM TES, 130 mM NaCl, 5 mM KCl, pH=7.4) resulting in a final hemoglobin concentration of 25 μM. The compounds were added at the final desired concentrations. The mixture was incubated for 45 min at 37° C. and then transferred to the Hemox sample chamber. The samples were saturated with oxygen by flushing with compressed air for 10 minutes. The samples were then flushed with pure nitrogen and the absorbance of deoxy-Hb was recorded as a function of the solution pO2. The oxygen equilibrium data was then fit to the Hill Model to obtain values for p50. The deoxygenation curves for both HbS alone (control) and HbS in the presence of compound were collected with the TCS software. The p50 for purified Hbs was typically 13.8±1.6. Delta p50 values were obtained from the p50 value for control minus the p50 value for HbS treated with compound divided by the p50 value for the control.
The compounds of Table 1 that were where tested in the assay above were all found to have positive delta p50 values. Delta p50% is calculated from [[p50(HbS) −p50(HbS treated with compound)]/p50(HbS)]×100. Table 2 below lists the delta p50% values where + indicates a delta p50% of between 0 and 29, ++ indicates a delta p50% of between 30 and 50, and +++ indicates a delta p50% of 50 or greater. Unless noted otherwise, the compounds in Table 2 were tested at 30 μM.

SMILES	delta p50%
COC(=O)c1cncc(COc2cnc(OC)cc2C=O)c1 [Compound 78, methyl 5-((4-formyl-6-methoxypyridin-3-yloxy)methyl)nicotinate]	+ (a delta p50% of between 0 and 29)
Cc1ccc(OCc2cnc3ccccc3c2)c(C=O)n1 [Compound 81, 6-methyl-3-(quinolin-3-ylmethoxy)picolinaldehyde]	+ (a delta p50% of between 0 and 29)
COc1cc(C=O)c(OCc2ccc3ccncc3c2)cn1 [Compound 82, 5-(isoquinolin-7-ylmethoxy)-2-methoxyisonicotinaldehyde]	+ (a delta p50% of between 0 and 29)
Cc1ccc(OCc2ccc3ccncc3c2)c(C=O)n1 [Compound 83, 3-(isoquinolin-7-ylmethoxy)-6-methylpicolinaldehyde]	+ (a delta p50% of between 0 and 29)
Cc1ccc(OCc2cccc3c2cnn3C)c(C=O)n1 [Compound 85, 6-methyl-3-((1-methyl-1H-indazol-4-yl)methoxy)picolinaldehyde]	+ (a delta p50% of between 0 and 29)
COc1cc(C=O)c(OCc2cccc3[nH]ncc23)cn1 [Compound 87, 5-((1H-indazol-4-yl)methoxy)-2-methoxyisonicotinaldehyde]	+ (a delta p50% of between 0 and 29)
Cc1ccc(OCc2cccc3[nH]ncc23)c(C=O)n1 [Compound 88, 3-((1H-indazol-4-yl)methoxy)-6-methylpicolinaldehyde]	+ (a delta p50% of between 0 and 29)
COc1ccc(OCc2ccc3cnn(C)c3c2)c(C=O)n1 [Compound 89, 6-methoxy-3-((1-methyl-1H-indazol-6-yl)methoxy)picolinaldehyde]	+ (a delta p50% of between 0 and 29)
COc1cc(C=O)c(OCc2cccc3cnn(C)c23)cn1 [Compound 90, 2-methoxy-5-((1-methyl-1H-indazol-7-yl)methoxy)isonicotinaldehyde]	+ (a delta p50% of between 0 and 29)
Cc1ccc(OCc2ccc3ccccc3n2)c(C=O)n1 [Compound 94, 6-methyl-3-(quinolin-2-ylmethoxy)picolinaldehyde]	+ (a delta p50% of between 0 and 29)
COc1cc(C=O)c(OCc2cnccc2-c2cn[nH]c2)cn1 [Compound 95, 5-((4-(1H-pyrazol-4-yl)pyridin-3-yl)methoxy)-2-methoxyisonicotinaldehyde]	+ (a delta p50% of between 0 and 29)
COc1cc(C=O)c(OCc2cc(Br)cn3ccnc23)cn1 [Compound 96, 5-((6-bromoimidazo[1,2-a]pyridin-8-yl)methoxy)-2-methoxyisonicotinaldehyde]	+ (a delta p50% of between 0 and 29)
COc1cc(C=O)c(OCc2cc(C#N)cn3ccnc23)cn1 [Compound 97, 8-((4-formyl-6-methoxypyridin-3-yloxy)methyl)imidazo[1,2-a]pyridine-6-carbonitrile]	+ (a delta p50% of between 0 and 29)
COc1cc(C=O)c(OCc2cncc(C#N)c2)cn1 [Compound 98, 5-((4-formyl-6-methoxypyridin-3-yloxy)methyl)nicotinonitrile]	+ (a delta p50% of between 0 and 29)
Cc1ccc(OCc2cccc3ocnc23)c(C=O)n1 [Compound 99, 3-(benzo[d]oxazol-4-ylmethoxy)-6-methylpicolinaldehyde]	+ (a delta p50% of between 0 and 29)
COc1cc(C=O)c(OCc2cc(C(N)=O)cn3ccnc23)cn1 [Compound 100, 8-((4-formyl-6-methoxypyridin-3-yloxy)methyl)imidazo[1,2-a]pyridine-6-carboxamide]	+ (a delta p50% of between 0 and 29)
COc1cc(C=O)c(OCc2cncc(C(N)=O)c2)cn1 [Compound 101, 5-((4-formyl-6-methoxypyridin-3-yloxy)methyl)nicotinamide]	+ (a delta p50% of between 0 and 29)
COc1cc(C=O)c(OCc2cc(-c3cn[nH]c3)cn3ccnc23)cn1 [Compound 102, 5-((6-(1H-pyrazol-4-yl)imidazo[1,2-a]pyridin-8-yl)methoxy)-2-methoxyisonicotinaldehyde]	+ (a delta p50% of between 0 and 29)

SMILES	delta p50%
COc1cc(C=O)c(OCc2cc(-c3ccn[nH]3)cn3ccnc23)cn1 [Compound 104, 5-((6-(1H-pyrazol-5-yl)imidazo[1,2-a]pyridin-8-yl)methoxy)-2-methoxyisonicotinaldehyde]	+ (a delta p50% of between 0 and 29)
COc1cc(C=O)c(OCc2ccnc3cccnc23)cn1 [Compound 105, 5-((1,5-naphthyridin-4-yl)methoxy)-2-methoxyisonicotinaldehyde]	+ (a delta p50% of between 0 and 29)
COc1cc(C=O)c(OCc2ccc3[nH]ncc3c2)cn1 [Compound 107, 5-((1H-indazol-5-yl)methoxy)-2-methoxyisonicotinaldehyde]	+ (a delta p50% of between 0 and 29)
Cc1ccc(OCc2ccc3c(c2)c(Cl)nn3C)c(C=O)n1 [Compound 109, 3-((3-chloro-1-methyl-1H-indazol-5-yl)methoxy)-6-methylpicolinaldehyde]	+ (a delta p50% of between 0 and 29)
COc1cc(C=O)c(OCc2ccc3c(cnn3C)c2)cn1 [Compound 110, 2-methoxy-5-((1-methyl-1H-indazol-5-yl)methoxy)isonicotinaldehyde]	+ (a delta p50% of between 0 and 29)
COc1cc(C=O)c(OCc2ccc3c(c2)c(Cl)nn3C)cn1 [Compound 111]	+ (a delta p50% of between 0 and 29)
COc1cc(C=O)c(NC(=O)c2cccn3ccnc23)cn1 [Compound 112, N-(4-formyl-6-methoxypyridin-3-yl)imidazo[1,2-a]pyridine-8-carboxamide]	+ (a delta p50% of between 0 and 29)
Cc1ccc(OCc2ccnc3c2c(C)nn3C)c(C=O)n1 [Compound 113, 3-((1,3-dimethyl-1H-pyrazolo[3,4-b]pyridin-4-yl)methoxy)-6-methylpicolinaldehyde]	+ (a delta p50% of between 0 and 29)
COc1cc(C=O)c(OCc2ccnc3c2c(C)nn3C)cn1 [Compound 114, 5-((1,3-dimethyl-1H-pyrazolo[3,4-b]pyridin-4-yl)methoxy)-2-methoxyisonicotinaldehyde]	+ (a delta p50% of between 0 and 29)
COc1cc(C=O)c(OCc2cc3ccccc3nc2Cl)cn1 [Compound 116, 5-((2-chloroquinolin-3-yl)methoxy)-2-methoxyisonicotinaldehyde]	+ (a delta p50% of between 0 and 29)
COc1cc(C=O)c(OCc2cc3ccccc3nc2-c2ccn[nH]2)cn1 [Compound 117]	+ (a delta p50% of between 0 and 29)
COc1cc(C=O)c(OCc2cnc3ccccc3n2)cn1 [Compound 118, 2-methoxy-5-(quinoxalin-2-ylmethoxy)isonicotinaldehyde]	+ (a delta p50% of between 0 and 29)
Cc1ccc(OCc2cnc3c(cnn3C)c2)c(C=O)n1 [Compound 121, 6-methyl-3-((1-methyl-1H-pyrazolo[3,4-b]pyridin-5-yl)methoxy)picolinaldehyde]	+ (a delta p50% of between 0 and 29)
COc1cc(C=O)c(OCc2cnc3c(cnn3C)c2)cn1 [Compound 122, 2-methoxy-5-((1-methyl-1H-pyrazolo[3,4-b]pyridin-5-yl)methoxy)isonicotinaldehyde]	+ (a delta p50% of between 0 and 29)
COc1cc(C=O)c(OCc2c(-c3cc[nH]n3)ccn3cncc23)cn1 [Compound 123, 5-((7-(1H-pyrazol-3-yl)imidazo[1,5-a]pyridin-8-yl)methoxy)-2-methoxyisonicotinaldehyde]	+ (a delta p50% of between 0 and 29)
COc1cc(C=O)c(OCc2cncc(-c3nn[nH]n3)c2)cn1 [Compound 124, 5-((5-(2H-tetrazol-5-yl)pyridin-3-yl)methoxy)-2-methoxyisonicotinaldehyde]	+ (a delta p50% of between 0 and 29)
COc1cc(C=O)c(OCc2cc(-c3nn[nH]n3)cn3ccnc23)cn1 [Compound 125, 5-((6-(2H-tetrazol-5-yl)imidazo[1,2-a]pyridin-8-yl)methoxy)-2-methoxyisonicotinaldehyde]	+ (a delta p50% of between 0 and 29)
